According to patent US9862680B2, “Peripherally substituted monocyclic beta-lactams” (University of Notre Dame du Lac, priority 2016, dated 2018):

Experiments:
[1] = tested on: panel of Gram-positive and Gram-negative bacteria; experiment: Kirby-Bauer agar diffusion assays, results in words; assay type: cell-based
Description: (§1) Antibacterial activity of the compounds was determined by a modified Kirby-Bauer^27-28 agar-diffusion assay. Overnight cultures of test organisms were grown in LB broth for 18-24h and standard suspensions of […] were prepared in saline solution (0.9% NaCl) according to a 0.5 BaSO4 McFarland Standard. This standardized suspension (0.1 mL) was added to 34 mL of sterile, Mueller Hinton No. 2 agar tempered to 47-50° C. After gentle mixing, the inoculated agar media was poured into a sterile plastic petri dish (145 mm×20 mm) and allowed to solidify near a flame with the lid cracked for 30 min. Wells of 9.0 mm diameter were cut from the petri dish agar and filled with exactly 50 μL of the test sample solution. For studies using mixtures of compounds, both test compounds were diluted to equal concentrations and 50 μL of the mixed compound solution was added to the cut well. The petri dish was incubated at 37° C. for 18-24 h and the inhibition zone diameters were measured (mm) with an electronic caliper after 24-48 h.
(§2) All compound-containing solutions were prepared by first making a 20 mM solution of the compound in DMSO and then diluting that solution 10-fold with MeOH to give the final 2 mM solution used in the assay.
(§3) Plates were incubated after inoculation at 37° C. for 20 hours. Plates were photographed after 1 day. M. vaccae required a longer incubation time, 48 hours, and was photographed after 3 days.

B. Subtilis ATCC 6633 = experiment: Agar diffusion assay (modified Kirby-Bauer); assay type: cell-based; settings: 50 μL in 9.0 mm well, P unclear, V very unclear zone, * slightly misshapen zone; for Zone of Growth Inhibition: 2 mM solution
Description: as §1, §2, §3

B. Dolosa AU 0018 = experiment: Agar diffusion assay (modified Kirby-Bauer); assay type: cell-based; settings: 2 mM solution, 50 μL in 9.0 mm well, P unclear, V very unclear zone, * slightly misshapen zone; for zone of inhibition at 2000 µM: Burkholderia dolosa, read-out: Zone of Growth Inhibition
Description: as §1, §2, §3

P. Aeruginosa K799/wt = experiment: Agar diffusion assay (modified Kirby-Bauer); assay type: cell-based; settings: P. Aeruginosa K799/wt (wild type), 2 mM solution, 50 μL in 9.0 mm well, P unclear, V very unclear zone, * slightly misshapen zone
Description: as §1, §2, §3

S. Aureus SG511 = experiment: Agar diffusion assay (modified Kirby-Bauer); assay type: cell-based; settings: 2 mM solution, 50 μL in 9.0 mm well, P unclear, V very unclear zone, * slightly misshapen zone; for zone of inhibition at 2000 µM: Staphylococcus aureus, read-out: Zone of Growth Inhibition
Description: as §1, §2, §3

A. Baumannii ATCC 17961 = experiment: Agar diffusion assay (modified Kirby-Bauer); assay type: cell-based; settings: 50 μL in 9.0 mm well, P unclear, V very unclear zone, * slightly misshapen zone; for Zone of Growth Inhibition: 2 mM solution
Description: as §1, §2, §3

M. Vaccae IMET 10670 = experiment: Agar diffusion assay (modified Kirby-Bauer); assay type: cell-based; settings: 2 mM solution, 50 μL in 9.0 mm well, 48 hours incubation, P unclear, V very unclear zone, * slightly misshapen zone; for zone of inhibition at 2000 µM: Mycolicibacterium vaccae, read-out: Zone of Growth Inhibition
Description: as §1, §2, §3

M. Luteus ATCC 10240 = experiment: Agar diffusion assay (modified Kirby-Bauer); assay type: cell-based
Description: as §1, §2, §3

E. Coli DC2 = experiment: Agar diffusion assay (modified Kirby-Bauer); assay type: cell-based
Description: as §1, §2, §3

E. Coli DC0 = experiment: Agar diffusion assay (modified Kirby-Bauer); assay type: cell-based; settings: 2 mM solution, 50 μL in 9.0 mm well, P unclear, V very unclear zone, * slightly misshapen zone; for zone of inhibition at 2000 µM: Escherichia coli, read-out: Zone of Growth Inhibition
Description: as §1, §2, §3

[2] = tested on: panel of Gram-positive and Gram-negative bacteria; experiment: MIC determination; assay type: cell-based; settings: same panel of Gram-positive and Gram-negative bacteria, all values
P. Aeruginosa K799/61 = experiment: Agar diffusion assay (modified Kirby-Bauer); assay type: cell-based; settings: for Zone of Growth Inhibition: P. Aeruginosa K799/61 (permeability mutant), 2 mM solution, 50 μL in 9.0 mm well, P unclear, V very unclear zone, * slightly misshapen zone
Description: as §1, §2, §3

CTX-M-14 = molecular target: T1, CTX-M-14 (Escherichia coli, UniProt Q9L5C7); experiment: β-lactamase inhibition, Ki by enzyme kinetics (nitrocefin); assay type: biochemical; settings: CTX-M-14, class A
T1 construct: host or cells: E. coli
T1 sequence (Q9L5C7 entry or part of it): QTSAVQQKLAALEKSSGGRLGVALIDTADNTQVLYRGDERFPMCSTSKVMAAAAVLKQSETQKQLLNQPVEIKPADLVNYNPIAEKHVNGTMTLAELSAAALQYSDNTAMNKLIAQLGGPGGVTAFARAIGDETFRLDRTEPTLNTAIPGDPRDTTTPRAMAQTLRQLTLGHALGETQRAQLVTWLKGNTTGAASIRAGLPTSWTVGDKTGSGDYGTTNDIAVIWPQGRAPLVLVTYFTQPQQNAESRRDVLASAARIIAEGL
Description: (§4) The enzymes KPC-2, Oxa-48, AmpC and NDM-1 were purchased from Emerald Bioscience and the enzymes CTX-14 and SHV-12 were expressed and purified from E. coli at Rempex pharmaceutical (San Diego, Calif.).
(§5) To the first row of a 2-mL deep 96-well block was added 1 mL of 50 mM sodium phosphate buffer at pH 7 with 0.1 mg/mL BSA (bovine serum albumin). To the first row was added an appropriate amount of a 10 mg/mL solution of the compound to be tested to make a 640 μM (4×) solution. Each of the other wells in the 96-well block were charged with 750 μL of the aforementioned buffer. The rows were then repeatedly diluted 1:3 so that the final concentrations of the individual 96-well plates would range in concentrations from 160 μM to 3 nM (8 dilutions). The master block was then used to add 50 pt to each corresponding well in the 96-well flat-bottom plate. An additional 50 of buffer was added to each well. Once the plates were prepared, 50 μL of the enzyme to be tested against were added in buffer to each well [KPC-2 (0.147 mg/mL), CTX-M-14 (0.102 mg/mL), […] (0.331 mg/mL), AmpC (0.699 mg/mL), SHV-12 (0.111 mg/mL), NDM-1 (0.110 mg/mL)]. The plates were incubated at rt for 10 min before 50 μL. of an appropriate indicator were added to each well and the optical density at 495 nm was measured over time. For each enzyme, other than NDM-1, nitrocefin was used. Nitrocefin (10 μM for SHV-12, 50 μM for the other enzymes), was appropriate because when cleaved by a β-lactamase, the color changes from yellow to red. For NDM-1, imipenem (10 μM) was the indicator of choice. Rather than observe the growing presence of optical density at 495 nm, as with nitrocefin, the disappearance of imipenem was monitored. The inhibition curves were monitored and used to perform enzyme kinetics according to Waley to determine the Ki (μM) of each compound against the β-lactamases screened.

AmpC = experiment: as above; assay type: biochemical; settings: class C
Description: as §4, §5

SHV-12 = molecular target: T2, SHV-12 (Klebsiella pneumoniae, UniProt P0AD64, E235K/G234S/L31Q); experiment: as above; assay type: biochemical; settings: SHV-12, class A
T2 construct: host or cells: E. coli
T2 sequence (P0AD64 22-286 L31Q/G234S/E235K): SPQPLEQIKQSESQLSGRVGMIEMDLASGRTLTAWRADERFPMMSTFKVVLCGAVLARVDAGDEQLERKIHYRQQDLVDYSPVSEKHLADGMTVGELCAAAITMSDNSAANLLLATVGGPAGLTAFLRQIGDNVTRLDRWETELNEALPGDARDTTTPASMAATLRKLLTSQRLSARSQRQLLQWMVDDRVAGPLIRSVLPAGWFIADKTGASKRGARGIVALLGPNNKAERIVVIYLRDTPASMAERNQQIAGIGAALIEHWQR
Description: as §4, §5

KPC-2 = molecular target: T3, KPC-2 (Klebsiella pneumoniae, UniProt Q9F663); experiment: as above; assay type: biochemical; settings: KPC-2, class A
T3 construct: purchased Emerald Bioscience
T3 sequence (Q9F663 25-293 limits assumed): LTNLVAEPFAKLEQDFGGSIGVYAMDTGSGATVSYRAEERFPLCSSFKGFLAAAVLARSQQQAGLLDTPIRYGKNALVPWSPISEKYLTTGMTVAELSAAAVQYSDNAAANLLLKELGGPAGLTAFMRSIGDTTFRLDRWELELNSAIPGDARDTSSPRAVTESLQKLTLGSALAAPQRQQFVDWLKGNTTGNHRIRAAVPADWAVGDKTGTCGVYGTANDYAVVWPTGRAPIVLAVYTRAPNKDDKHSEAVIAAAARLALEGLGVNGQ
Description: as §4, §5

Oxa-48 = molecular target: T4, Oxa-48 (Klebsiella pneumoniae, UniProt Q6XEC0); experiment: as above; assay type: biochemical; settings: Oxa-48, class D
T4 construct: purchased Emerald Bioscience
T4 sequence (Q6XEC0 23-265 limits assumed): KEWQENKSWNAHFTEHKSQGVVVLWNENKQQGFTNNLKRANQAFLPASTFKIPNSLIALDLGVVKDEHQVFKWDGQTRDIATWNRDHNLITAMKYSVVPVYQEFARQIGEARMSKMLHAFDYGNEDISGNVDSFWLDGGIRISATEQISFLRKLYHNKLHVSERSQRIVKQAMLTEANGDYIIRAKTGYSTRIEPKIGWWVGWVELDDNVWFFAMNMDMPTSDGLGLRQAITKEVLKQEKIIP
Description: as §4, §5

PAM 2035 = experiment: β-lactamase inhibition, Ki by enzyme kinetics; assay type: biochemical; settings: PAM 2035, class C
NDM-1 = molecular target: T5, NDM-1 (Klebsiella pneumoniae, UniProt C7C422); experiment: β-lactamase inhibition, Ki by enzyme kinetics (imipenem); assay type: biochemical; settings: NDM-1, class B
T5 construct: purchased Emerald Bioscience
T5 sequence (C7C422 29-270 limits assumed): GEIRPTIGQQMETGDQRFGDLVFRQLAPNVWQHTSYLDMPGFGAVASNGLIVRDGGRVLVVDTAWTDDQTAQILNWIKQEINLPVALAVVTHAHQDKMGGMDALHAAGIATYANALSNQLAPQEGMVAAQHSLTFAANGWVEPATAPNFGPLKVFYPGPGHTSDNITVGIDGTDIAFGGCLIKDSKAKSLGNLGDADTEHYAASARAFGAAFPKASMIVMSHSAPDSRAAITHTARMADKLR
Description: as §4, §5

[3] = M. Luteus ATCC 10240, 2 mM solution, 50 μL in 9.0 mm well, P unclear, V very unclear zone, * slightly misshapen zone
[4] = E. Coli DC2, 2 mM solution, 50 μL in 9.0 mm well, P unclear, V very unclear zone, * slightly misshapen zone
[5] = Pseudomonas aeruginosa, read-out: Zone of Growth Inhibition

| SMILES | Zone of Growth Inhibition (B. Subtilis ATCC 6633) | Zone of Growth Inhibition (B. Dolosa AU 0018) [mm] | Zone of Growth Inhibition (P. Aeruginosa K799/wt) | Zone of Growth Inhibition (S. Aureus SG511) | Zone of Growth Inhibition (A. Baumannii ATCC 17961) | Zone of Growth Inhibition (M. Vaccae IMET 10670) | Zone of Growth Inhibition (M. Luteus ATCC 10240; [3]) | Zone of Growth Inhibition (E. Coli DC2; [4]) | Zone of Growth Inhibition (E. Coli DC0) [mm] | Zone of Growth Inhibition (P. Aeruginosa K799/61) | other results |
| --- | --- | --- | --- | --- | --- | --- | --- | --- | --- | --- | --- |
| COC(=O)CSCC1C(NC(=O)Cc2ccccc2)C(=O)N1S(=O)(=O)[O-].[K+] (racemic) [Compound 29] |  |  |  |  |  |  |  |  |  |  | antibacterial activity ([1]; agar diffusion, overall): did not show any activity |
| CC(C)(ON=C(C(=O)NC1C(=O)N(S(=O)(=O)[O-])C1CSCCN)c1cnc(N)s1)C(=O)O.[K+] (racemic) [Compound 48] | 0 mm | 15 | 18P | 0 mm | 12P | 0 mm | 26P | 28 mm | 26 |  | antibacterial activity (M. Luteus ATCC 10240; on the Gram-positive M. luteus): very interesting activity; antibacterial activity against Gram-negative bacteria ([1]; agar diffusion, Gram-negative bacteria): very interesting activity |
| CO/N=C(\C(=O)N[C@@H]1C(=O)N(S(=O)(=O)[O-])[C@H]1CSCCNC(=O)OC(C)(C)C)c1cnc(N)s1.[K+] [Compound 43] |  |  | 0ppt |  |  |  |  |  |  |  | MIC [2]: > 50 µM; zone of inhibition at 2000 µM (B. Subtilis ATCC 6633; Bacillus subtilis, ATCC6633, 2 mM solution, read-out: Zone of Growth Inhibition): 18 mm; zone of inhibition at 2000 µM (B. Dolosa AU 0018): 0 mm; zone of inhibition at 2000 µM (S. Aureus SG511): 0 mm; zone of inhibition at 2000 µM (A. Baumannii ATCC 17961; Acinetobacter baumannii, ATCC17961, 2 mM solution, read-out: Zone of Growth Inhibition): 0 mm; zone of inhibition at 2000 µM (M. Vaccae IMET 10670): 0 mm; zone of inhibition at 2000 µM (M. Luteus ATCC 10240; Micrococcus luteus, ATCC10240, M. Luteus ATCC 10240, 2 mM solution, 50 μL in 9.0 mm well, P unclear, V very unclear zone, * slightly misshapen zone, read-out: Zone of Growth Inhibition): 0 mm; zone of inhibition at 2000 µM (E. Coli DC2; Escherichia coli, E. Coli DC2, 2 mM solution, 50 μL in 9.0 mm well, P unclear, V very unclear zone, * slightly misshapen zone, read-out: Zone of Growth Inhibition): 29 mm; zone of inhibition at 2000 µM (E. Coli DC0): 0 mm; antibacterial activity ([1]; against B. subtilis and the permeability mutant forms of P. aeruginosa and E. coli): moderate activity; antibacterial activity ([1]; corresponding wild strains of P. aeruginosa and E. coli): inactivity |
| CO/N=C(\C(=O)N[C@@H]1C(=O)N(S(=O)(=O)[O-])[C@H]1CSCCN)c1cnc(N)s1.[K+] [Compound 44] | 16V |  |  |  |  |  | 14 s |  |  |  | MIC [2]: > 50 µM; zone of inhibition at 2000 µM (B. Dolosa AU 0018): 0 mm; zone of inhibition at 2000 µM (P. Aeruginosa K799/wt; [5]): 0 mm; zone of inhibition at 2000 µM (P. Aeruginosa K799/61; [5]): 14 mm; zone of inhibition at 2000 µM (S. Aureus SG511): 0 mm; zone of inhibition at 2000 µM (M. Vaccae IMET 10670): 0 mm; antibacterial activity (E. Coli DC2; against E. coli DC2, called wild type in the text): active; zone of inhibition at 2000 µM (E. Coli DC0): 23 mm; antibacterial activity ([1]; against B. subtilis, M. luteus, A. baumannii and the permeability mutant strains of P. aeruginosa and E. coli): moderately active |
| CC(C)c1cc(C(C)C)c(S(=O)(=O)ON2C(=O)CC2CBr)c(C(C)C)c1 (stereo not drawn) [Compound 61d] |  | 0 | 0 mm |  | 0 mm |  |  | 0 mm | 0 | 0 mm | Ki (CTX-M-14): > 160 µM; Ki (AmpC): > 160 µM; Ki (SHV-12): > 160 µM; Ki (KPC-2): > 160 µM; Ki (Oxa-48): > 160 µM; Ki (PAM 2035): > 160 µM; Ki (NDM-1): > 160 µM |
| O=C1CC(CBr)N1OS(=O)(=O)c1ccc([N+](=O)[O-])cc1 (stereo not drawn) [Compound 61e] |  | 0 | 0 mm | 0 mm | 0 mm | 0 mm | 0 mm | 0 mm | 0 | 12.6* mm |  |
| O=C1CC(CBr)N1OS(=O)(=O)c1ccc([N+](=O)[O-])cc1[N+](=O)[O-] (stereo not drawn) [Compound 61f] | 22 mm | 0 | 0 mm | 21P | 16V | 28 mm | 18P | 16P | 0 | 0 mm |  |
| Cc1ccc(S(=O)(=O)ON2C(=O)CC2CBr)cc1 (stereo not drawn) [Compound 61g] | 0 mm | 0 | 0 mm | 18V | 13.5 mm | 19V | 16P | 0 mm | 0 | 0 mm |  |
| CN(C)c1cccc2c(S(=O)(=O)ON3C(=O)CC3CBr)cccc12 (stereo not drawn) [Compound 61h] |  | 0 | 0 mm | 15* mm | 0 mm |  |  | 0 mm | 0 | 0 mm |  |
